From patent US11065292B2, “Feijoa fruit extract” (CALLAGHAN INNOVATION, priority 2012, dated 2021)

Columns and labels:
[1] = test system: collagen-induced arthritis (CIA) mice; experiment: Collagen-induced arthritis mice: clinical score, treadmill, histology, radiology; assay type: in vivo
[2] = test system: splenocytes of CIA mice; experiment: Cytokine ELISA on splenocytes of CIA mice; assay type: in vivo; conditions: mean ± SD, 5 mice
Experimental: The production of IL-2, IL-4, IL-6, and IFN-γ from mitogen-stimulated splenocytes was determined as previously described (Chouaib, S.; Welte, K.; Mertelsman, R.; Dupont, B.; J. Immunol., 1985, 135, 1172-1179). Spleens were gently teased with forceps in the culture medium producing a suspension of spleen cells (CM, RPMI 1640 containing 10% fetal bovine serum, 2 mM L-glutamine, 1×10^5 units/L of penicillin and streptomycin). The red blood cells were lysed with 3 mL of lysing buffer (0.16 mol/L ammonia chloride Tris buffer, pH 7.2) at 37° C. for 5 minutes. The cells were then washed with CM twice. The cell concentrations were counted and adjusted to 2×10^6 cells/mL. Splenocytes ([…]) were cultured in triplicate on 96-well flat-bottom culture plates. Splenocytes (0.1 mL/well) were stimulated with ConA (1×10^−2 g/L, 0.1 mL/well) to induce IL-2, IL-4 and IFN-γ production. In other plates, splenocytes were cultured with lipopolysaccharide (1×10^−6 g/L) to induce IL-6 production. These plates were incubated at 37° C., 5% CO2; the culture time for IL-2, IL-4 and IL-6 is 24 hours (or 72 hours for IFN-γ). After incubation, supernatants were collected and stored at −70° C. The cytokines were determined by sandwich ELISA as previously described using a commercial kit.
To establish whether the protective effect of the feijoa fruit extract was related to the anti-inflammatory response observed in the CIA mice, pro-inflammatory cytokines (TNF-α, IL-2 and INF-γ) were investigated using the ELISA assay described in Example 3 (Table 9). It is well known that such cytokines play crucial roles in joint destruction by damaging the synovial cells within the joint. Consequently, a reduction in synovial cells within the joint results in an increase in friction, which in turn, results in inflammation and the potential development of arthritis.

[3] = day 56-79, diet with extract (1.8 mg/day) or 10 mg/kg methotrexate, mean ± SD, 5 mice

CN(Cc1cnc2nc(N)nc(N)c2n1)c1ccc(C(=O)N[C@@H](CCC(=O)O)C(=O)O)cc1 [Methotrexate, methotrexate]
Clinical Score (paw swelling) ([1]; day 56-79, diet with extract (1.8 mg/day) or 10 mg/kg methotrexate, 5 mice): 10.5 ± 0.7 | Foot pressure (treadmill) [1, 3]: 141.23 ± 5.28 | Running Speed (treadmill) [1, 3]: 121.36 ± 1.69 mm/s | Histological evaluation of joint sections (H&E) ([1]; end of trial, FIGS. 2, 3): relatively normal joint structures with little soft tissue swelling | IFN-γ level by splenocytes [2]: 182 ± 21 pg/mL | IL-2 level by splenocytes [2]: 104 ± 10 pg/mL | TNF-α level by splenocytes [2]: 255 ± 15 pg/mL
